Reference: patent US5840697A, “Peptide inhibitors of calmodulin” (Torrey Pines Institute for Molecular Studies, priority 1996, dated 1998)
Square brackets hold non-standard residues; d marks the D form. Peptide text beside a SMILES is read from it.

Experiments:
[1] = molecular target: phosphodiesterase; assay: calcium-dependent phosphodiesterase assay in the absence of calmodulin; format: biochemical; details: Table III
Procedure: To sample assay tubes were added the following components: assay buffer, 25 ul; CaCl2, 5 ul; 5'-nucleotidase, 7.5 ul (stock solution is 10 units/ml); calmodulin 5 units; calmodulin inhibitor peptides to obtain the desired final concentration of 50 μM. The volume was then made up to 200 ul with water. Control blanks were prepared replacing the peptides with water. The added components were thoroughly mixed and the tubes incubated at 30° C. for 10 min. Then, 25 ul of cAMP at 10.8 mM was added and incubated for 90 min at 30° C. The reaction was stopped by the addition of 50 ul of 55% trichloroacetic acid (TCA). The samples were centrifuged to remove the protein precipitate and the 50 ul of the supernatant was withdrawn for phosphate measurement. To the supernatant aliquot, 50 ul ammonium molybdate (0.55% in 1.1 N sulfuric acid) was added, followed by the addition of 5 ul of reducing agent (24 g sodium bisulfite, 2.4 g sodium sulfite, 0.5 g of 1-amino-2-naphthol-4-sulfonic acid in 200 ml of water), and the contents were mixed by vortexing. The absorbance of the solution were read at 660 nm using water as a blank, identified as control "Calmo."
As described above, one of the undesirable biological effects of existing calmodulin inhibitors is their non-specific binding to other proteins and the like. Therefore, the specificity of the instant inhibitory peptides for calmodulin was examined. The specificity was determined using the calcium-dependent phosphodiesterase assay described in Example I. The assay was carried out for the determination of IC50 values in the presence of calmodulin (IC50 value for calmodulin) and in the absence of calmodulin (IC50 for phosphodiesterase), the latter of which provides the effect of the inhibitory peptides on the phosphodiesterase.

[2] = molecular target: calmodulin (Homo sapiens, UniProt P0DP23); assay: electrophoretic band shift assay of peptide-calmodulin complexes; format: binding
Procedure: The following samples were subjected to electrophoresis in the gel lane indicated:
Because melittin is known to bind to calmodulin as described, for example, in Comte et al., Biochem. J., 209:269-272 (1983), in the above samples melittin is the positive control. The samples were incubated with calmodulin at 22° C. for 1 hr, and electrophoresed on a 10% acrylamide gel in Tris-glycine buffer under nondenaturating conditions as described in Head and Perry, Biochem. J., 137:145-154 (1974), which is incorporated herein by reference. The gel was then stained with coomasie blue.
The band shifts were also measured using a densitometer. Determination of band width by densitometry was done on the following samples: (1) calmodulin (1 nmol)+EDTA (2 nmol); (2) calmodulin (1 nmol)+Ca^2+ (1 nmol)+Ac-(D)Leu-(D)Trp-(D)Arg-(D)Ile-(D)Leu-(D)Trp-NH2 (100 nmol); and (3) calmodulin (1 nmol)+Ca^2+ (1 nmol).

[3] = system: NRK cells; assay: long term stability: number of NRK cells at 48 hr after activation; format: cell-based, rat; details: added at 5 hr, counted 48 hr after activation
Description: The similar activity found for the (L)-amino acid peptides and (D)-amino acid peptides indicate that the inhibition of calmodulin occurs rapidly following the addition of the inhibitory peptides. The peptides' long term stability was then studied by adding Ac-(D)Leu-(D)Trp-(D)Arg-(D)Ile-(D)Leu-(D)Trp-NH2, Ac-Leu-Trp-Arg-Ile-Leu-Trp-NH2 (SEQ ID No. 48), W13 and W12 at 5 hr following the reentry of the NRK cells into the cell cycle and measuring the number of cells at 48 hr after activation.

[4] = system: rat liver cells; assay: in vivo rat model: DNA synthesis of rat liver cells after partial hepatectomy; details: intravenous injection 5 hours after partial hepatectomy, measured 24 hours post hepatectomy
Description: The effect that calmodulin inhibitors have on DNA synthesis were also studied in vivo in a rat model. Rat liver cells are a useful in vivo system for studying synchronized cells and the cell cycle. By partial hepatectomy, the hepatocyte quiescent cells present in normal adult rat liver can be stimulated to enter the replicative cell cycle and the effect of inhibitors on the cycle analyzed. This example provides the effect of the subject calmodulin inhibitory peptides on the DNA synthesis of rat liver cells in partial hepatectomy stage following intra venal injection of the peptides.
Male Sprague-Dawley rats ([…]; 2 rats per peptide or control) were fasted overnight. Partial hepatectomies were carried out under Ketolar anesthesia (Parke-Davis; Ann Arbor, Mich.), following the procedure described by Higgins and Anderson in Arch. Pathol., 12:186-202 (1931), which is incorporated herein by reference. […] DNA synthesis was assessed by measuring the radioactivity incorporated into DNA following an intraperitoneal injection (0.5 mCi/g body weight) of [^3 H] thymidine 1 hr prior to killing the rat and at 23 hours post hepatectomy. […] The liver tissue was homogenized in 10% trifluoroacetic acid at 4° C. and the DNA extracted and its radioactivity measured following the procedure described by Burton, Biochem. J., 62:315-320 (1956), which is incorporated herein by reference. […]

[5] = system: normal rat kidney (NRK) cells; assay: DNA synthesis ([3H]-thymidine incorporation) in cell culture; format: cell-based; details: added at 5 hr
Procedure: Following the methods described in Lopez-Girona et al., Cell Calcium, 18:30-40 (1995), which is incorporated herein by reference, the effect of calmodulin inhibitory peptides on DNA synthesis was investigated. Specifically, peptides were added to culture media and assessed for their ability to inhibit the progression of normal rat kidney (NRK) cells into the S phase of the cell cycle; the DNA synthesis phase into the cell growth cycle. Such inhibition has been shown for existing anti-calmodulin drugs such as W13.
NRK cells were made quiescent by growing them to confluence in Dulbecco's minimum essential medium supplemented with 5% fetal calf serum (FCS), and then kept for 3-4 days in the same medium but with only 0.5% FCS. To allow them to re-enter the cell cycle, quiescent cells were trypsinized and subcultured at a lower density in fresh medium supplemented with 5% FCS.
DNA synthesis was analyzed by the measurement of [^3 H]-thymidine into whole cell DNA. NRK cells (10^5 per 35 mm plate) were pulse labeled for 1 hr with [methyl-^3 H]-thymidine (5 Ci/mmol) at 4 μCi/ml in Dulbecco's minimum essential medium supplemented with 5% FCS. Precipitation and solubilization of DNA was carried out as described in Cripps-Wolfman et al., J. Biol. Chem., 264:19478-19486 (1989), which is incorporated herein by reference.
The NRK cells stimulated to proliferate by addition of 5% FCS enter synchronously into the cell cycle and start the S phase after 12 hr reaching a maximum between 18 to 20 hr. The peptides were added at 5 hr (time at which the cells have already reenter the G1 phase). […] Similar results were found between the (D)-amino acid peptides and their (L)-counterpart.

SMILES: CC[C@@H](C)[C@@H](NC(=O)[C@@H](CCCNC(=N)N)NC(=O)[C@@H](Cc1c[nH]c2ccccc12)NC(=O)[C@@H](CC(C)C)NC(C)=O)C(=O)N[C@H](CC(C)C)C(=O)N[C@H](Cc1c[nH]c2ccccc12)C(N)=O [Ac-(D)Leu-(D)Trp-(D)Arg-(D)Ile-(D)Leu-(D)Trp-NH2] (Ac-[dL][dW][dR][dI][dL][dW]-NH2)
- IC50 [1]: 118 µM
- band shift (mobility change) on binding to calmodulin ([2]; in the presence of Ca2+): shifted relative to lane 8
- band shift (mobility change) on binding to calmodulin ([2]; with EDTA (no calcium)): no band shift
- number of cells relative to control cells [3]: significantly lower number of cells
- % DNA SYNTHESIS [4]: 50%
- % DNA SYNTHESIS ([5]; 7.5 μM): 59%
- % DNA SYNTHESIS ([5]; 15 μM): 25%
